The subject of the test is isolated rat hearts. Put plainly: Langendorff ex vivo perfused rat heart model of ischaemia reperfusion injury. As to conditions: 1938 5 μM or insulin 1 μM; Fig 5d, single hearts. Here is the method: The Langendorff ex vivo perfused rat heart was used as an experimental model of IRI[79]. The animal experiments were conducted within the terms of the UK Animals (Scientific Procedures) Act 1986, under Project Licence number PPL 70/8556 (Protection of the Ischaemic and Reperfused Myocardium). All procedures conform to the guidelines from Directive 2010/63/EU of the European Parliament on the protection of animals used for scientific purposes. Male Sprague–Dawley rats were bred at a central animal unit in University College London and used at a weight of 250–350 g, and randomly assigned to experimental groups. Rats were anaesthetised by intraperitoneal injection of sodium pentobarbitone (60 mg/kg) (Animalcare, York, UK). […] Analysis of infarct size (IS) as a proportion of area at risk (AAR) was calculated via planimetry using imageJ software (version 1.45, National Institutes of Health, USA).
Alternatively, after 15 min reperfusion, perfusion was stopped and hearts were freeze-clamped in liquid nitrogen and frozen at -80°C. […] Protein content was determined by bicinchoninic acid (BCA) assay (Sigma-Aldrich, Gillingham, UK). […] The next day, membranes were probed with IRDye fluorescence-tagged secondary antibodies (#926-32211 and #926-68020; LI-COR Biosciences, Ltd. UK) and imaged and quantified using the Odyssey imaging system (Image Studio Lite Ver 5.2; LI-COR Biosciences, Cambridge, UK).

“And” between values parts separate entries of the source, which are not always exact repeats. Equal entries are not always repeated.

For “insulin: insulin, canonical activator of PI3Kα, used as positive control”, the “Western blot pAkt in langendorff” value was 3.259 and 3.657.

The record behind these values is paper PMC7614683, “A small molecule PI3Kα activator for cardioprotection and neuroregeneration” (Nature, 2023).
